Assay results taken from patent US20220071953A1, “Small Molecule Analogs Of The Protein E4ORF1 In The Treatment And Prevention Of Metabolic Disorders” (Texas Tech University System, priority 2019, published 2022).
Entries after “also recorded” stand apart in the source; their conditions may differ.

Assays:
[1] = tested on: 3T3-L1 pre-adipocytes, mature adipocytes and murine skeletal muscle cells; experiment: In vitro screening of small molecules for cellular glucose uptake; assay type: cell-based; conditions: 20 μM/well, 24 h; for greater glucose uptake compared to control: other replications not presented; for increase in cellular glucose: tested 3 or more times in different cell types
Procedure: Next, over time, Applicants tested cellular glucose uptake with 41 different E4orf1 analog small molecules in 3T3-L1 pre-adipocytes, mature adipocytes and murine skeletal muscle cells. Cells were exposed to 20 μM/well of E4orf1 analogs. Glucose uptake by cells was determined 24 h later. Insulin and human adenovirus Ad36 were used as positive controls for glucose uptake. The * indicates statistical significance after Bonferroni correction for multiple comparisons.
Applicants conducted glucose uptake assays for compounds several separate times. BN #3 and BT #141 had about 70% greater glucose uptake compared to control in other replications not presented herein.

[2] = tested on: C57BL/6J male mice on a 60% kcal high-fat diet; experiment: Glucose tolerance test (GTT) in high-fat diet fed mice; assay type: in vivo; conditions: daily injection of 4 mg/kg, GTT 7 and/or 14 days post-treatment, vs DMSO control mice
Procedure: (§1) To determine improvement in glucose disposal in vivo, 10 wk old C57BL/6J male mice (Jax Laboratories) on a 60% kcal high-fat diet (Research diets, Inc.) since 6 weeks of age were divided into weight-matched groups. In individual experiments, mice were treated with daily injection of 4 mg/kg of respective small molecules (BN #3, BT #141, BT #143 and BT #181) or DMSO alone as control. Improvement in glycemic control was determined by glucose tolerance test (GTT) performed at baseline (prior to treatment), 7 days and/or 14 days post-treatment. Insulin-independent action of the small molecules was also measured by collecting blood during GTT and quantifying serum insulin by enzyme-linked immunosorbent assay (ELISA).

[3] = tested on: C57BL/6J male mice on a 60% kcal high-fat diet; experiment: Serum insulin by ELISA during GTT in high-fat diet fed mice; assay type: in vivo; conditions: daily injection of 4 mg/kg, vs DMSO control mice
Procedure: as §1

3T3L1 preadipocytes = experiment: Glucose uptake in 3T3L1 preadipocytes treated with E4orf1 analogs; assay type: cell-based; conditions: analogs 2 μl/ml of media, 24 hr in dark, vs DMSO, repeated 3 times
Procedure: FIG. 3 illustrates that selected E4orf1 chemical analogs increase glucose uptake. 3T3L1 preadipocytes were treated with dimethyl sulfoxide (DMSO) or insulin or treated with analogs BT324, BT325, BT326, BT327, BT328, and BT329. The treatments were compared using one way analysis of variance (ANOVA) and post hoc Tukey's test. Groups sharing same letters are not statistically significant.
(§2) 3T3L1 preadipocytes (passage number 8 below) were used to treat with analogs. As control, cells were treated with equal volumes of DMSO. As positive control, cells were treated with 100 nM insulin. Cells at 70% confluency were treated with analogs (2 μl/ml of media) in dark for 24 hr. Post 24 hr treatment, cells were used either to determine glucose uptake or to obtain cell lysates for determining pAKT abundance by Western blot analysis.

pAkt/Akt = experiment: Western blot for pAkt/Akt in cell lysates of treated 3T3L1 preadipocytes; assay type: cell-based; conditions: 24 hr incubation, vs DMSO
Procedure: FIG. 4 illustrates that the E4orf1 chemical analogs that increase glucose uptake also increase pAkt levels—the underlying mechanism for increasing cellular glucose uptake. 3T3L1 preadipocytes were treated with DMSO or insulin or with analogs BT324, BT325, BT327, or BT329. Post 24 hr incubation in the dark, cell lysates were collected and 20 μg of protein was loaded and probed for pAkt/Akt. Band intensities were analyzed using Image J software. Groups sharing same letters are not statistically significant.
as §2

Cc1cc(C(C#N)Nc2ccc(B3OC(C)(C)C(C)(C)O3)cc2)no1 (stereo not shown) [BN #3]
greater glucose uptake compared to control [1]: about 70% | increase in cellular glucose [1]: consistently significant increase in cellular glucose | glucose clearance / glycemic control (GTT) ([2]; 4 mg/kg): improved glycemic control; also recorded: improved glucose disposal | insulin secretion [3]: lower insulin secretion

COC(=O)c1cc2cc(Cl)ccc2oc1=O [BT324]
glucose uptake (3T3L1 preadipocytes): significantly increased glucose uptake | pAkt/Akt (pAkt/Akt): significant increase in pAkt/Akt

O=C(O)c1cc2cc(Cl)ccc2oc1=O [BT325]
glucose uptake (3T3L1 preadipocytes): significantly increased glucose uptake | pAkt/Akt (pAkt/Akt): significant increase in pAkt/Akt

O=C(O)c1cc2cc(Cl)ccc2[nH]c1=O [BT327]
glucose uptake (3T3L1 preadipocytes): significantly increased glucose uptake | pAkt/Akt (pAkt/Akt): significant increase in pAkt/Akt

C#Cc1ccc(/C(N)=N/O)cc1 [BT329]
glucose uptake (3T3L1 preadipocytes): significantly increased glucose uptake | pAkt/Akt (pAkt/Akt): significant increase in pAkt/Akt

CC1(C)OB(c2ccc(C(C#N)Nc3ccc(O)cc3)cc2)OC1(C)C (stereo not shown) [BT #141]
greater glucose uptake compared to control [1]: about 70% | increase in cellular glucose [1]: consistently significant increase in cellular glucose | glucose clearance / glycemic control (GTT) ([2]; 4 mg/kg): improved glycemic control | glucose clearance / glycemic control (GTT) ([2]; listed as BN #141, 4 mg/kg): improved glucose disposal
